Laboratory results published in PubChem BioAssay (NCI).
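Each compound was tested at five concentrations against cells in 96-well plates for 48 hours. TGI is the concentration that stops growth completely.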

Experiments:
Assay in all cases: NCI-60 cell line screen, 48 h
[1] = system: SK-OV-3 ovarian
[2] = system: CAKI-1 renal
[3] = system: SNB-19 CNS
[4] = system: DU-145 prostate
[5] = system: COLO 205 colon
[6] = system: U251 CNS
[7] = system: 786-0 renal
[8] = system: HOP-62 NSCLC
[9] = system: RPMI-8226 leukemia
[10] = system: MCF7 breast
[11] = system: M14 melanoma
[12] = system: MALME-3M melanoma
[13] = system: OVCAR-4 ovarian
[14] = system: NCI-H23 lung
[15] = system: SF-539 CNS
[16] = system: CCRF-CEM leukemia
[17] = system: ACHN renal
[18] = system: HT29 colon
[19] = system: A549 NSCLC
[20] = system: PC-3 prostate
[21] = system: HL-60(TB) leukemia
[22] = system: SF-295 CNS
[23] = system: OVCAR-5 ovarian
[24] = system: MOLT-4 leukemia
[25] = system: SN12C renal
[26] = system: UO-31 renal
[27] = system: BT-549 breast
[28] = system: SW-620 colon
[29] = system: UACC-257 melanoma
[30] = system: SK-MEL-28 melanoma
[31] = system: SNB-75 CNS
[32] = system: RXF 393 renal
[33] = system: K-562 leukemia
[34] = system: UACC-62 melanoma
[35] = system: NCI/ADR-RES ovarian
[36] = system: SR leukemia
[37] = system: OVCAR-3 ovarian
[38] = system: NCI-H226 lung
[39] = system: SF-268 CNS
[40] = system: HCT-116 colon
[41] = system: IGROV1 ovarian
[42] = system: MDA-N
[43] = system: EKVX NSCLC
[44] = system: TK-10 renal
[45] = system: NCI-H460 lung
[46] = system: OVCAR-8 ovarian
[47] = system: NCI-H522 lung
[48] = system: HCC-2998 colon
[49] = system: SK-MEL-5 melanoma
[50] = system: HCT-15 colon
[51] = system: LOX IMVI melanoma
[52] = system: MDA-MB-435
[53] = system: MDA-MB-231 breast
[54] = system: T-47D breast
[55] = system: A498 renal
[56] = system: HOP-92 NSCLC
[57] = system: KM12 colon
[58] = system: SK-MEL-2 melanoma

Measured: TGI

N#CCCC(CC#N)N1CCN(C(CC#N)CCC#N)CC1 (stereo unspecified)
> 100000 nM: [32]
not listed: [51] | [52] | [53] | [54] | [55] | [56] | [57] | [58]
> 100 µM: all other assays above

COc1cccc2c1C(=O)c1c(O)c3c(c(O)c1C2=O)CC(O)(C(O)CO)CC3OC1CC2C(OC3COCC(C#N)N32)C(C)O1 (stereo unspecified)
0.0324 µM: [39]
2.15 µM: [10]
13.5 µM: [28]
1.47 µM: [25]
0.406 µM: [4]
1.04 µM: [50]
0.0282 µM: [7]
0.0727 µM: [1]
0.0432 µM: [8]
> 100 µM: [19] | [22] | [36]
0.13 µM: [6]
0.213 µM: [17]
< 10 nM: [32]
4.31 µM: [23]
0.0125 µM: [51]
1.71 µM: [46]
0.0139 µM: [53]
0.0194 µM: [20]
0.0644 µM: [43]
0.0144 µM: [3]
not listed: [2] | [9] | [15] | [18] | [26] | [27] | [31] | [37] | [40] | [45] | [47] | [57] | [58]
< 0.01 µM: all other assays above

N#CCCC1(CCC#N)CCc2ccccc2C1=O
not listed: [5] | [19] | [22] | [27] | [32] | [55] | [56]
> 100 µM: all other assays above

C=C(C)/C=C/C(O)[C@](C)(O)[C@H]1[C@H](O)C[C@@]2(C)[C@@H]3CCc4c(cc(OC5OC(CO)C(O)C(O)C5O)c(O)c4C)C3(C)C(=O)C[C@]12C (stereo partly specified)
> 100000 nM: [32]
not listed: [9] | [21] | [27]
> 100 µM: all other assays above

O=c1oc2ccccc2c(O)c1/C=N/C(=S)Nc1ccccc1
833 nM: [32]
94.7 µM: [58]
97.8 µM: [31]
not listed: [1] | [2] | [3] | [6] | [7] | [9] | [10] | [12] | [18] | [21] | [26] | [27] | [28] | [36] | [41] | [44] | [52] | [56]
> 100 µM: all other assays above
